Laboratory results from ChEMBL document CHEMBL1148625, “3-(1,1-dioxo-2H-(1,2,4)-benzothiadiazin-3-yl)-4-hydroxy-2(1H)-quinolinones, potent inhibitors of hepatitis C virus RNA-dependent RNA polymerase” (J Med Chem, 2006).

Molecular target: RNA-directed RNA polymerase (Hepacivirus hominis, UniProt O39930)
Assay: Inhibitory activity against HCV delta 21 NS5B RNA polymerase by SPA assay
Parameters: species or system Hepatitis C virus subtype 1b

RNA-directed RNA polymerase, sequence (O39930 whole entry): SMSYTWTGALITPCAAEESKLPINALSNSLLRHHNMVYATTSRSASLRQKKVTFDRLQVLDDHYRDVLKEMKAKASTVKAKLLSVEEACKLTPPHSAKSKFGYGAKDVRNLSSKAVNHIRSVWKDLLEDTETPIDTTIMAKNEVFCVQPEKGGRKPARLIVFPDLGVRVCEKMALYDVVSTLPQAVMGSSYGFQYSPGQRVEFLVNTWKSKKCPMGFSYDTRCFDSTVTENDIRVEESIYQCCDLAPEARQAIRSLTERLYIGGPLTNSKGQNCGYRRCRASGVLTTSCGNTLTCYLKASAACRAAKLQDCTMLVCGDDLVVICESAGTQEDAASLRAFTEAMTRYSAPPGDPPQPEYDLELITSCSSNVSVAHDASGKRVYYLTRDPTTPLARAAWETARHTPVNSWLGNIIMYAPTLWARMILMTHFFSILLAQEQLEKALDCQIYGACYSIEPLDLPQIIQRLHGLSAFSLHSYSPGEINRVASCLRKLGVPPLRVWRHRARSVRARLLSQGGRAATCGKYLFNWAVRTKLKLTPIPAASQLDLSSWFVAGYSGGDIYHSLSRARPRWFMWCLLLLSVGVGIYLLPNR

Structure (SMILES)	IC50 [nM]
NC(=O)CCCn1c(=O)c(C2=Nc3ccccc3S(=O)(=O)N2)c(O)c2ccccc21	> 10000
O=c1c(C2=Nc3ccccc3S(=O)(=O)N2)c(O)c2ccccc2n1Cc1ccccc1[N+](=O)[O-]	> 10000
CC(C)CCn1c(=O)c(C2=NS(=O)(=O)c3ccccc3N2)c(O)c2cc(C(=O)O)ccc21	1040
CC(=O)Nc1ccc2c(c1)c(O)c(C1=NS(=O)(=O)c3ccccc3N1)c(=O)n2CCC(C)C	> 10000
CC(C)CCn1c(=O)c(C2=NS(=O)(=O)c3ccccc3N2)c(O)c2cc(OCCCC#N)ccc21	4330
O=c1c(C2=NS(=O)(=O)c3ccccc3N2)c(O)c2ccccc2n1CCc1ccsc1	> 10000
O=S1(=O)N=C(c2c(O)nc3ccccc3c2O)Nc2ccccc21	> 10000
O=c1c(C2=NS(=O)(=O)c3ccccc3N2)c(O)c2ccccc2n1CC1CCCO1 (centres undefined)	528
O=C(O)CCCn1c(=O)c(C2=Nc3ccccc3S(=O)(=O)N2)c(O)c2ccccc21	> 10000
CC(C)CCn1c(=O)c(C2=NS(=O)(=O)c3ccccc3N2)c(O)c2c(Cl)cccc21	33
CC(C)CCn1c(=O)c(C2=Nc3ccccc3S(=O)(=O)N2)c(O)c2cccc([N+](=O)[O-])c21	> 10000
O=c1[nH]c(-c2c(O)c3cc(F)ccc3n(CCC3CC3)c2=O)nc2ccccc12	> 10000
CC(C)CCn1c(=O)c(C2=NS(=O)(=O)c3ccccc3N2)c(O)c2cc(I)ccc21	> 10000
C#CCCn1c(=O)c(C2=NS(=O)(=O)c3ccccc3N2)c(O)c2ccccc21	118
CC(C)CCn1c(=O)c(C2=Nc3ccccc3S(=O)(=O)N2)c(O)c2cc(NC(=O)CN(C)C)ccc21	5810
CC(C)CCn1c(=O)c(C2=Nc3ccccc3S(=O)(=O)N2)c(O)c2cc(NC(=O)C3CCCC3)ccc21	973
COC(C)CCn1c(=O)c(C2=NS(=O)(=O)c3ccccc3N2)c(O)c2ccccc21 (centres undefined)	82
CCCCn1c(=O)c(-c2nc3ccccc3[nH]2)c(O)c2ccccc21	> 10000
Cn1c(=O)c(C2=NS(=O)(=O)c3ccccc3N2)c(O)c2ccccc21	5590
CC(C)(C)C(=O)Cn1c(=O)c(C2=NS(=O)(=O)c3ccccc3N2)c(O)c2cc(F)ccc21	696
CC(C)CCn1c(=O)c(C2=Nc3ccccc3S(=O)(=O)N2)c(O)c2cc(OCC#N)ccc21	34

Structure (SMILES)	IC50 [nM]
CC(C)CCn1cc(C2=NS(=O)(=O)c3ccccc3N2)c(=O)c2ccccc21	> 10000
CC(C)CCn1c(=O)c(C2=Nc3ccccc3S(=O)(=O)N2)cc2ccccc21	> 10000
CC(C)CCn1c(=O)c(C2=Nc3ccccc3S(=O)(=O)N2)c(O)c2ccc(Br)cc21	> 10000
CC(C)CCn1c(=O)c(C2=Nc3ccccc3S(=O)(=O)N2)c(O)c2c(F)cccc21	340
CC(C)CCn1c(=O)c(C2=Nc3ccccc3S(=O)(=O)N2)c(O)c2ccc(C(=O)O)cc21	> 10000
CC(C)CCn1c(=O)c(C2=Nc3ccccc3S(=O)(=O)N2)c(O)c2cc(OCC(N)=O)ccc21	24
O=c1c(C2=NS(=O)(=O)c3ccccc3N2)c(O)c2ccccc2n1CCO	> 10000
N#CCCCn1c(=O)c(C2=NS(=O)(=O)c3ccccc3N2)c(O)c2ccccc21	172
CC(C)CCn1c(=O)c(C2=Nc3ccccc3S(=O)(=O)N2)c(O)c2ccc(Cl)cc21	> 10000
CN(C)CCn1c(=O)c(C2=Nc3ccccc3S(=O)(=O)N2)c(O)c2ccccc21	> 10000
CC(C)CCn1c(=O)c(C2=NS(=O)(=O)c3ccccc3N2)c(O)c2cc(NC(=O)c3ccccc3)ccc21	4230
CC(C)CCn1c(=O)c(C2=NS(=O)(=O)c3ccccc3N2C)c(O)c2ccccc21	> 2430
C[S+]([O-])CCn1c(=O)c(C2=NS(=O)(=O)c3ccccc3N2)c(O)c2ccccc21 (centres undefined)	2540
CC(C)CCn1c(=O)c(C2=NS(=O)(=O)c3ccccc3N2)c(O)c2ccc(/C=C/C(N)=O)cc21	> 10000
O=c1c(C2=NS(=O)(=O)c3ccccc3N2)c(O)c2ccccc2n1CCCc1ccccc1	> 10000
O=c1c(C2=NS(=O)(=O)c3ccccc3N2)c(O)c2ccccc2n1CCN1CCCC1	> 10000
C=CCn1c(=O)c(C2=Nc3ccccc3S(=O)(=O)N2)c(O)c2ccccc21	> 10000
CC(C)(C)CCn1c(=O)c(C2=NS(=O)(=O)c3ccccc3N2)c(O)c2ccccc21	21
CCC(C)CCn1c(=O)c(C2=NS(=O)(=O)c3ccccc3N2)c(O)c2ccccc21 (centres undefined)	65
NCCCCn1c(=O)c(C2=NS(=O)(=O)c3ccccc3N2)c(O)c2ccccc21	> 10000
O=c1c(C2=Nc3ccccc3S(=O)(=O)N2)c(O)c2ccccc2n1-c1ccccc1	> 10000

Structure (SMILES)	IC50 [nM]
O=c1c(C2=NS(=O)(=O)c3ccccc3N2)c(O)c2ccccc2n1CCc1ccccc1	> 10000
CC(C)CCn1c(=O)c(C2=NS(=O)(=O)c3ccccc3N2)c(O)c2cc(NC(=O)CC(C)C)ccc21	6500
CCOC(=O)c1ccc2c(O)c(C3=Nc4ccccc4S(=O)(=O)N3)c(=O)n(CCC(C)C)c2c1	> 10000
CC(C)CCn1c(=O)c(C2=NS(=O)(=O)c3ccccc3N2)c(O)c2c(O)cccc21	47
CC(CCn1c(=O)c(C2=NS(=O)(=O)c3ccccc3N2)c(O)c2ccccc21)C(F)(F)F (centres undefined)	44
CC(C)CCn1c(=O)c(C2=NS(=O)(=O)c3ccccc3N2)c(N)c2ccccc21	> 10000
CSCCn1c(=O)c(C2=NS(=O)(=O)c3ccccc3N2)c(O)c2ccccc21	53
CCOC(=O)CCCn1c(=O)c(C2=NS(=O)(=O)c3ccccc3N2)c(O)c2ccccc21	> 10000
COCCOc1ccc2c(c1)c(O)c(C1=NS(=O)(=O)c3ccccc3N1)c(=O)n2CCC(C)C	1740
CCOC(=O)n1c(=O)c(C2=NS(=O)(=O)c3ccccc3N2)c(O)c2ccccc21	2040
O=c1c(C2=Nc3ccccc3S(=O)(=O)N2)c(O)c2ccccc2n1CCc1cccs1	> 10000
CN(C)C(=O)Cn1c(=O)c(C2=Nc3ccccc3S(=O)(=O)N2)c(O)c2cc(F)ccc21	> 10000
CC(C)CCn1c(=O)c(C2=Nc3ccccc3S(=O)(=O)N2)c(O)c2ccc([N+](=O)[O-])cc21	> 10000
CCOC(=O)CNc1ccc2c(c1)c(O)c(C1=Nc3ccccc3S(=O)(=O)N1)c(=O)n2CCC(C)C	115
CC(C)(C)c1ccc(Cn2c(=O)c(C3=NS(=O)(=O)c4ccccc4N3)c(O)c3ccccc32)cc1	> 10000
O=c1c(C2=NS(=O)(=O)c3ccccc3N2)c(O)c2ccccc2n1CC1CCOC1 (centres undefined)	484
CC(C)CCn1c(=O)c(C2=Nc3ccccc3S(=O)(=O)N2)c(O)c2cc(NCC(=O)O)ccc21	21
CC(C)CCn1c(=O)c(C2=NS(=O)(=O)c3ccccc3N2)c(O)c2c([N+](=O)[O-])cccc21	338
CC(C)CCn1c(=O)c(C2=Nc3ccccc3S(=O)(=O)N2)c(O)c2cc([N+](=O)[O-])ccc21	455

Continued, values first:

IC50 [nM]	Structure (SMILES)
80	CCCCCn1c(=O)c(C2=Nc3ccccc3S(=O)(=O)N2)c(O)c2ccccc21
105	CC(C)CCn1c(=O)c(C2=Nc3ccccc3S(=O)(=O)N2)c(O)c2c(Br)cccc21
289	CC(C)=CCn1c(=O)c(C2=Nc3ccccc3S(=O)(=O)N2)c(O)c2ccccc21
150	C/C=C/Cn1c(=O)c(C2=Nc3ccccc3S(=O)(=O)N2)c(O)c2ccccc21
81	O=c1c(C2=Nc3ccccc3S(=O)(=O)N2)c(O)c2ccccc2n1Cc1cccc([N+](=O)[O-])c1
1550	CCCn1c(=O)c(C2=Nc3ccccc3S(=O)(=O)N2)c(O)c2ccccc21
61	O=c1c(C2=NS(=O)(=O)c3ccccc3N2)c(O)c2ccccc2n1Cc1ccncc1
95	O=c1c(C2=NS(=O)(=O)c3ccccc3N2)c(O)c2ccccc2n1Cc1ccc(Br)cc1
1300	O=c1c(C2=Nc3ccccc3S(=O)(=O)N2)c(O)c2ccccc2n1CCCCO
780	N#Cc1ccccc1Cn1c(=O)c(C2=Nc3ccccc3S(=O)(=O)N2)c(O)c2ccccc21
144	CC(C)CCn1c(=O)c(C2=Nc3ccccc3S(=O)(=O)N2)c(O)c2c(-c3ccccc3)cccc21
179	C#CCCCn1c(=O)c(C2=Nc3ccccc3S(=O)(=O)N2)c(O)c2ccccc21
367	O=c1c(C2=Nc3ccccc3S(=O)(=O)N2)c(O)c2ccccc2n1CC1CCCCC1
2320	CS(=O)(=O)CCn1c(=O)c(C2=Nc3ccccc3S(=O)(=O)N2)c(O)c2ccccc21
205	CC(C)CCn1c(=O)c(C2=Nc3ccccc3S(=O)(=O)N2)c(O)c2cc(Br)ccc21
36	O=c1c(C2=Nc3ccccc3S(=O)(=O)N2)c(O)c2ccccc2n1Cc1cccc(Br)c1
198	CC(C)CCn1c(=O)c(C2=Nc3ccccc3S(=O)(=O)N2)c(O)c2cc(O)ccc21

IC50 [nM]	Structure (SMILES)
819	COCCn1c(=O)c(C2=Nc3ccccc3S(=O)(=O)N2)c(O)c2ccccc21
78	O=c1c(C2=Nc3ccccc3S(=O)(=O)N2)c(O)c2ccccc2n1CC1CC1
290	CC(Br)CCn1c(=O)c(C2=Nc3ccccc3S(=O)(=O)N2)c(O)c2ccccc21 (centres undefined)
750	N#CCCCCn1c(=O)c(C2=Nc3ccccc3S(=O)(=O)N2)c(O)c2ccccc21
49	O=c1c(C2=Nc3ccccc3S(=O)(=O)N2)c(O)c2ccccc2n1CC1CCC1
554	CC(C)CCn1c(=O)c(C2=Nc3ccccc3S(=O)(=O)N2)c(O)c2ccc(F)cc21
90	O=c1c(C2=Nc3ccccc3S(=O)(=O)N2)c(O)c2cccc(F)c2n1CCC1CC1
3950	CC(C)CCn1c(=O)c(C2=Nc3ccccc3S(=O)(=O)N2)c(O)c2cc(OCc3ccccc3)ccc21
20	CC(C)CCn1c(=O)c(C2=Nc3ccccc3S(=O)(=O)N2)c(O)c2cc(F)ccc21
2440	O=c1c(C2=Nc3ccccc3S(=O)(=O)N2)c(O)c2ccccc2n1Cc1ccc([N+](=O)[O-])cc1
2220	CCn1c(=O)c(C2=Nc3ccccc3S(=O)(=O)N2)c(O)c2ccccc21
108	CC(C)Cn1c(=O)c(C2=Nc3ccccc3S(=O)(=O)N2)c(O)c2ccccc21
41	CC1CC1Cn1c(=O)c(C2=Nc3ccccc3S(=O)(=O)N2)c(O)c2ccccc21 (centres undefined)
2690	O=c1c(C2=NS(=O)(=O)c3ccccc3N2)c(O)c2ccccc2n1Cc1ccccn1
206	Cc1cccc2c1c(O)c(C1=Nc3ccccc3S(=O)(=O)N1)c(=O)n2CCC(C)C
304	Cc1nc(Cn2c(=O)c(C3=Nc4ccccc4S(=O)(=O)N3)c(O)c3ccccc32)cs1
